# From US20080267880A1, “AUTOMATED METHOD FOR HIGH THROUGHTOUT SCREENING OF NEMATODES” (priority 2002, published 2008)
# Where “and” joins values, the source holds several entries; their conditions need not be identical. Equal values may be shown once.
# What was measured:
# [1] = test system: wild-type worms (C. elegans N2); format: in vivo, Caenorhabditis elegans
# Procedure: Eggs were transferred to 24-well plates (Corning Inc., NY) containing 1 ml S-medium, without cholesterol, plus 1×10^8 cells/ml E. coli OP50, and grown at 25° C. All assays were performed on 3 day old egg-laying hermaphrodites. For worms treated with the superoxide/dismutase mimetic Euk-134 (Eukarion, Mass.) a single dose was added from a 5 mM stock (in Milli-Q water) on day one. At adulthood, 100 μL of culture media was removed from each well and replaced with 100 μL of paraquat stock solution (final concentration 40 mM). The cultures were then placed back at 25° C. and scored 48 h later for touch-provoked movement using a platinum wire. Immediately following the manual score, SYTOX green dye was added to each well to a final concentration of 1 μM.
# We then examined the utility of SYTOX green dye as a score of death due to oxidative stress by incubating 3 day old gravid adult worms in the presence or absence of 40 mM paraquat for 48 hr. Death was first scored by the absence of touch provoked movement and 15 min later by the presence of SYTOX-associated fluorescence (FIG. 6A). […] Following the addition of […] SYTOX green dye and incubation for 15 min at room temperature, death was scored as the presence of fluorescence (FIG. 6A). The mean fraction alive (±SEM) as scored by SYTOX-associated fluorescence was 0.95±0.02 (n=69) in controls and 0.07±0.04 (n=157) in paraquat treated worms.
# The utility of SYTOX dye was further tested in an experiment in which worms were cultured in the presence or absence of Euk-134 prior to paraquat exposure (FIG. 6B). […] The mean fraction alive (±SEM) scored by touch-provoked movement was 0.06±0.03 (n=47, 40 mM paraquat) and 0.78±0.11 (n 51, 40 mM paraquat+0.5 mM Euk134). The mean fraction alive (±SEM) scored using SYTOX dye was 0.13±0.00 (n=45, 40 mM paraquat) and 0.92±0.01 (n=51, 40 mM paraquat+0.5 mM Euk134). In each of these experiments the percentage of animals scored as alive using the SYTOX score was always slightly higher than the manual score.
# wild type C. elegans N2 [2] = assay: Microplate thermotolerance assay (35° C. heat shock, SYTOX fluorescence score of death); format: in vivo, Caenorhabditis elegans; set-up: thermotolerance compared to untreated wild type worms: dose or concentration left out as unconfirmed; conditions: heat shock 35° C.
# Procedure: Worms (˜10,000 to 20,000) were washed off NGM plates with 10 ml S-basal into a 15 ml tube. After gravity settling for 5 minutes, 9 ml S-basal was aspirated and replaced with fresh 9 ml S-basal. Following a further 2 washes the nematodes were introduced to the sample cup on the COPAS™ BIOSORT at a concentration of 1 worm per μl. Worms were dispensed, 1 animal per well, into either 96 well or 384 well microtitre plates according to the manufacturers instructions. For thermotolerance assays 384 well low volume plates (Greiner Bio-One Inc, Longwood, Fla.) were prepared with 20 μl S-medium containing SYTOX® at a final concentration of 1 μM. […]
# The thermotolerance assay was performed in a Fluoroskan Ascent fluorometer (Thermo Labsystems, Finland). The ambient temperature of the fluorometer was set to 35° C. and Ascent software was configured to measure the fluorescence from each well every 30 minutes over a 20-24 hour period with a 20 millisecond measurement time for each well. At this setting a complete 384 well plate could be read within 30 seconds. The excitation wavelength for fluorescence was 485 nm and the emission wavelength 538 nm.
# Analysis of individual fluorescence curves was performed using the Fluoroskan Ascent software. A 100% increase in fluorescence over baseline was used a cut-off to define a death event. […]
# wild type C. elegans N2 [3] = conditions: Babar et al. (1999); cited from earlier work
# [4] = 40 mM paraquat+0.5 mM Euk134, 48 h
smiles,measurement,setting,value
COc1cccc(C=NCCN=Cc2cccc(OC)c2[O-])c1[O-].[Cl-].[Mn+3] [Euk-134],"mean fraction alive (±SEM), scored by touch-provoked movement",[1]; [4],0.78±0.11
same,"mean fraction alive (±SEM), scored using SYTOX dye",[1]; [4],0.92±0.01
"O=c1cc(N2CCOCC2)oc2c(-c3ccccc3)cccc12 [LY294002, 2-(4-Morpholinyl)-8-phenyl-4H-1-benzopyran-4-one]",effect of the drug on thermotolerance,wild type C. elegans N2 [2]; 100 nM LY294002,no significant effect
same,thermotolerance compared to untreated wild type worms,wild type C. elegans N2 [2]; grown from eggs to 4 day adults in S-medium at 20° C.,significantly more thermotolerant
same,thermotolerance of treated wild type worms (previously shown),wild type C. elegans N2 [3],confers thermotolerance similar to that seen in age-1(hx546)
C[n+]1ccc(-c2cc[n+](C)cc2)cc1 [paraquat],"mean fraction alive (±SEM), SYTOX-associated fluorescence score","[1]; 40 mM paraquat alone, 48 h, 3 day old gravid adults, 15 min SYTOX",0.07±0.04 and 0.13±0.00
